Data published in US6214537A, “Synthetic peptides and mixtures thereof for detecting HIV antibodies” (Biochem Immunosystems, Inc., priority 1988, dated 2001).
Positions of bridges follow the written chain, without caps; N, C: chain ends. Residues, ends and D or L forms follow the SMILES beside them. No end group written: not given here.

What was measured:
[1] = tested on: HIV-1 antibodies; assay: ELISA, single peptides identifying HIV-1 positive sera; assay type: binding, human
Protocol: According to this test a peptide or a peptide mixture of the present invention is adsorbed onto the wells of a microtiter plate. The wells are then treated with sera to be tested. After washing, anti-human IgG labeled with peroxidase is added to the wells. The determination of the peroxidase is performed with a corresponding substrate, e.g. with o-phenylene diamine. Also in this procedure the peroxidase can be exchanged by another label, e.g. by a radioactive or fluorescence label.
(§1) Each well of the microtiter plate is saturated with 100 μl of a solution containing a peptide or mixture of peptides (5 μg/ml) and left overnight. The wells are emptied and washed twice with a washing buffer (Tris, 0.043M; NaCl, 0.5M;thimerosal, 0.01% w/v; Tween 20, 0.05% v/v; pH 7.4). The wells are then saturated with 0.35 ml of washing buffer for 1 hr. at 37° C. and washed once with the same buffer. Serum samples to be analyzed are diluted with specimen buffer (washing buffer plus casein, 0.05% w/v). The wells are rinsed with washing buffer prior to the addition of the diluted serum sample (0.1 ml). These are left to incubate for 1 hr. at room temperature. The wells are then emptied, washed twice rapidly and then once for two minutes with washing buffer. […] The wells are then emptied and washed twice rapidly with washing buffer and then five times in which the buffer was in contact with the well 2 minutes per washing.
(§2) The substrate solution (3,3', 5,5'-tetramethylbenzidine, 8 mg per ml of DMSO) is diluted with 100 volumes 0.1M citrate-acetate buffer, pH 5.6 containing 0.1% v/v of 30% H2 O2 and added to each well (0.1 ml per well). After 10 minutes the contents of each well is treated with 0.1 ml 2N H2 SO4 and the optical density read at 450 nm. All determinations are done in duplicate.

[2] = tested on: HIV-1-antibodies; assay: ELISA, cyclic versus non-cyclic peptides, sera at various dilutions; assay type: binding, human
Protocol: TABLE 5 is provided to illustrate the sensitivity of cyclic versus noncyclic peptides in the ELISA test by comparing the results of some sera at various dilutions.
Plates used in this experiment were coated with solutions of peptides at 10 μg/ml. (Experimental results of TABLE 5 were obtained with plates coated with peptides at 0,5 μg/ml). Four different HIV-1 positive serum samples were serially diluted and their titers determined. The titer was defined as the serum dilution giving an absorbancy reading of 1:0 in the conditions of the ELISA procedure already described.
as §1, §2

“NH2 -GCSGKLICTTAVPWNASWSWSNKSLEQI-COOH [Peptide 95]” was tested, and the “% Positive Sera correctly Identified” value ([1]; ELISA, single peptide) was 100%.
For `CC[C@H](C)[C@@H]1NC(=O)[C@H](CC(C)C)NC(=O)[C@H](CCCCN)NC(=O)CNC(=O)[C@H](CO)NC(=O)[C@@H](NC(=O)CN)CSSC[C@@H](C(=O)N[C@H](C(=O)N[C@H](C(=O)N[C@@H](C)C(=O)N[C@H](C(=O)N2CCC[C@H]2C(=O)N[C@@H](Cc2c[nH]c3ccccc23)C(=O)N[C@@H](CC(N)=O)C(=O)N[C@@H](C)C(=O)N[C@@H](CO)C(=O)O)C(C)C)[C@@H](C)O)[C@@H](C)O)NC1=O` [Peptide 80] (H-GCSGKLICTTAVPWNAS-OH; disulfide 2-8), the “% Positive Sera correctly Identified” value ([1]; ELISA, single peptide) was 100%, the ELISA optical density ([2]; serum 87V103, dilution 1/50) was 0.003 optical density units and the ELISA optical density ([2]; serum 1428, dilution 1/50) was 1.047 optical density units. The ELISA optical density ([2]; serum M-5, dilution 1/50) was 2.104 optical density units, the ELISA optical density ([2]; serum M-5, dilution 1/100) was 1.881 optical density units and the ELISA optical density ([2]; serum M-5, dilution 1/200) was 1.599 optical density units. The ELISA optical density ([2]; serum M-5, dilution 1/800) was 0.767 optical density units, the ELISA optical density ([2]; serum M-7, dilution 1/50) was 0.191 optical density units and the ELISA optical density ([2]; serum M-7, dilution 1/100) was 0.067 optical density units. The ELISA optical density ([2]; serum M-7, dilution 1/200) was 0.019 optical density units, the ELISA optical density ([2]; serum M-7, dilution 1/400) was 0.010 optical density units and the ELISA optical density ([2]; serum M-7, dilution 1/800) was 0.005 optical density units. It also gave an ELISA optical density ([2]; serum M-8, dilution 1/50) of 1.026 optical density units, an ELISA optical density ([2]; serum M-8, dilution 1/100) of 0.737 optical density units and an ELISA optical density ([2]; serum M-8, dilution 1/200) of 0.520 optical density units. For the same compound, the ELISA optical density ([2]; serum M-8, dilution 1/400) was 0.340 optical density units, the ELISA optical density ([2]; serum M-8, dilution 1/800) was 0.159 optical density units and the ELISA optical density ([2]; serum M-16, dilution 1/50) was 1.601 optical density units. It also gave an ELISA optical density ([2]; serum M-16, dilution 1/100) of 1.300 optical density units, an ELISA optical density ([2]; serum M-16, dilution 1/200) of 0.903 optical density units and an ELISA optical density ([2]; serum M-16, dilution 1/400) of 0.583 optical density units. The ELISA optical density ([2]; serum M-16, dilution 1/800) was 0.329 optical density units.
CGKIEPLGVAPTKAKRRVVQREKR [Peptide 71] was tested, and the “% Positive Sera correctly Identified” value ([1]; ELISA, single peptide) was 83%.
GHACVPTDPNPQEVVL [Peptide 14] was tested, and the “% Positive Sera correctly Identified” value ([1]; ELISA, single peptide) was 50%.
With `CC[C@H](C)[C@H](NC(=O)[C@H](CCC(N)=O)NC(=O)[C@H](CCC(=O)O)NC(=O)[C@H](CC(C)C)NC(=O)[C@H](CO)NC(=O)[C@H](CCCCN)NC(=O)[C@H](CC(N)=O)NC(=O)[C@H](CO)NC(=O)[C@H](Cc1c[nH]c2ccccc12)NC(=O)[C@H](CO)NC(=O)[C@H](C)NC(=O)[C@H](CC(N)=O)NC(=O)[C@H](Cc1c[nH]c2ccccc12)NC(=O)[C@@H]1CCCN1C(=O)[C@@H](NC(=O)[C@H](C)NC(=O)[C@@H](NC(=O)[C@@H](NC(=O)[C@@H]1CSSC[C@H](NC(=O)CN)C(=O)N[C@@H](CO)C(=O)NCC(=O)N[C@@H](CCCCN)C(=O)N[C@@H](CC(C)C)C(=O)N[C@@H]([C@@H](C)CC)C(=O)N1)[C@@H](C)O)[C@@H](C)O)C(C)C)C(=O)O` [Peptide 96] (H-GCSGKLICTTAVPWNASWSNKSLEQI-OH; disulfide 2-8) the “% Positive Sera correctly Identified” value ([1]; ELISA, single peptide) was 100%.
For “NH2 -IWGCSGKLICTTAVPWNAS-COOH (H-IWGCSGKLICTTAVPWNAS-OH; cysteine pairing not given here) [Peptide 78, linear peptide, gp41 602-620]”, the “% Positive Sera correctly Identified” value ([1]; ELISA, single peptide) was 100%.
With “CGRAEQASQEVKN [Peptide 46, NH2 -CGRAEQASQEVKN-COOH]” the “% Positive Sera correctly Identified” value ([1]; peptide Free) was 0% and the “% Positive Sera correctly Identified” value ([1]; peptide coupled) was 93%.
In the case of “CGNNPPIPVGE [Peptide 41, NH2 -CGNNPPIPVGE-COOH]”, the “% Positive Sera correctly Identified” value ([1]; peptide Free) is reported as 63% and the “% Positive Sera correctly Identified” value ([1]; peptide coupled) is reported as 73%.
In the case of `CC[C@H](C)[C@H](NC(=O)CNC(=O)[C@H](CC(C)C)NC(=O)[C@H](CC(C)C)NC(=O)[C@H](CCC(N)=O)NC(=O)[C@H](CCC(N)=O)NC(=O)[C@H](CC(=O)O)NC(=O)[C@H](CCCCN)NC(=O)[C@H](CC(C)C)NC(=O)[C@H](Cc1ccc(O)cc1)NC(=O)[C@H](CCCNC(=N)N)NC(=O)[C@H](CCC(=O)O)NC(=O)[C@@H](N)C(C)C)C(=O)N[C@@H](Cc1c[nH]c2ccccc12)C(=O)NCC(=O)N[C@H]1CSSC[C@@H](C(=O)N[C@H](C(=O)N[C@H](C(=O)N[C@@H](C)C(=O)N[C@H](C(=O)N2CCC[C@H]2C(=O)N[C@@H](Cc2c[nH]c3ccccc23)C(=O)N[C@@H](CC(N)=O)C(=O)N[C@@H](C)C(=O)N[C@@H](CO)C(=O)O)C(C)C)[C@@H](C)O)[C@@H](C)O)NC(=O)[C@H]([C@@H](C)CC)NC(=O)[C@H](CC(C)C)NC(=O)[C@H](CCCCN)NC(=O)CNC(=O)[C@H](CO)NC1=O` [Peptide 88] (H-VERYLKDQQLLGIWGCSGKLICTTAVPWNAS-OH; disulfide 16-22), the “% Positive Sera correctly Identified” value ([1]; ELISA, single peptide) is reported as 100%.
“NH2 -CGLGIWGCSGKLICTTAVPWNASWSNKSLEQI-COOH [Peptide 98]” was tested, and the “% Positive Sera correctly Identified” value ([1]; ELISA, single peptide) was 100%.
In the case of “NH2 -FAFAFGCSGKLICTTAVPWNASWSNKSLEQI-COOH [Peptide 91]”, the “% Positive Sera correctly Identified” value ([1]; ELISA, single peptide) is reported as 94%.
For TTAVPWNASWSNKSLEQGC [Peptide 42], the “% Positive Sera correctly Identified” value ([1]; ELISA, single peptide) was 5%.
“NH2 -SGKLICTTAVPWNASWSNKSLEQGC-COOH [Peptide 56]” was tested, and the “% Positive Sera correctly Identified” value ([1]; ELISA, single peptide) was 100%.
With “NH2 -VERYLKDQQLLGIWGCSGKLICTTAVPWNAS-COOH (H-VERYLKDQQLLGIWGCSGKLICTTAVPWNAS-OH; cysteine pairing not given here) [Peptide 81, linear peptide, gp41 590-620]” the “% Positive Sera correctly Identified” value ([1]; ELISA, single peptide) was 100%.
For “NH2 -CGYLKDQQLLGIWGCSGKLICTTAVPWNASWSNKSLEQI-COOH [Peptide 97]”, the “% Positive Sera correctly Identified” value ([1]; ELISA, single peptide) was 100%.
For “NH2 -GCSGKLICTTAVPWNAS-COOH (H-GCSGKLICTTAVPWNAS-OH; cysteine pairing not given here) [Peptide 77, linear peptide, gp41 604-620]”, the “% Positive Sera correctly Identified” value ([1]; ELISA, single peptide) was 100%, the ELISA optical density ([2]; serum 87V103, dilution 1/50) was 0.000 optical density units and the ELISA optical density ([2]; serum 1428, dilution 1/50) was 0.926 optical density units. The ELISA optical density ([2]; serum M-5, dilution 1/50) was 1.719 optical density units, the ELISA optical density ([2]; serum M-5, dilution 1/100) was 1.459 optical density units and the ELISA optical density ([2]; serum M-5, dilution 1/200) was 1.248 optical density units. The ELISA optical density ([2]; serum M-5, dilution 1/400) was 0.959 optical density units, the ELISA optical density ([2]; serum M-5, dilution 1/800) was 0.057 optical density units and the ELISA optical density ([2]; serum M-7, dilution 1/50) was 0.142 optical density units. It also gave an ELISA optical density ([2]; serum M-7, dilution 1/100) of 0.025 optical density units, an ELISA optical density ([2]; serum M-7, dilution 1/200) of 0.007 optical density units and an ELISA optical density ([2]; serum M-7, dilution 1/400) of 0.001 optical density units. For the same compound, the ELISA optical density ([2]; serum M-7, dilution 1/800) was 0.000 optical density units, the ELISA optical density ([2]; serum M-8, dilution 1/50) was 0.795 optical density units and the ELISA optical density ([2]; serum M-8, dilution 1/100) was 0.507 optical density units. The ELISA optical density ([2]; serum M-8, dilution 1/200) was 0.376 optical density units, the ELISA optical density ([2]; serum M-8, dilution 1/400) was 0.209 optical density units and the ELISA optical density ([2]; serum M-8, dilution 1/800) was 0.062 optical density units. For the same compound, the ELISA optical density ([2]; serum M-16, dilution 1/50) was 1.219 optical density units, the ELISA optical density ([2]; serum M-16, dilution 1/100) was 0.962 optical density units and the ELISA optical density ([2]; serum M-16, dilution 1/200) was 0.613 optical density units. The ELISA optical density ([2]; serum M-16, dilution 1/400) was 0.301 optical density units and the ELISA optical density ([2]; serum M-16, dilution 1/800) was 0.205 optical density units.
“NH2 -CGVERYLKQQLLGIWGCSGKLICTTAVPWNASWSNKSLEQI-COOH [Peptide 99]” was tested, and the “% Positive Sera correctly Identified” value ([1]; ELISA, single peptide) was 100%.
